According to patent US10149839B2, “Chemical compounds” (AstraZeneca AB, priority 2016, dated 2018):
≈ marks a conversion by molar mass, not a printed value.

Tests used:
[1] = physchem; conditions: 1-octanol/aqueous buffer, pH 7.4
[2] = Thermodynamic solubility (shake flask); assay type: physicochemical; conditions: aqueous phosphate buffer pH 7.4, 24 hours
[3] = Human plasma protein binding (equilibrium dialysis); assay type: in vitro ADME; conditions: dialysis 18 hours
[4] = target: Estrogen Receptor (ERα) in MCF-7 cells (Homo sapiens (Human), UniProt P03372); experiment: MCF-7 ER down-regulation assay (immuno-fluorescence); assay type: cell-based; conditions: for IC50: 18-22 hours incubation; for % downregulation: shown in brackets where not >90%
Sequence of Estrogen Receptor (ERα) in MCF-7 cells (P03372 whole entry): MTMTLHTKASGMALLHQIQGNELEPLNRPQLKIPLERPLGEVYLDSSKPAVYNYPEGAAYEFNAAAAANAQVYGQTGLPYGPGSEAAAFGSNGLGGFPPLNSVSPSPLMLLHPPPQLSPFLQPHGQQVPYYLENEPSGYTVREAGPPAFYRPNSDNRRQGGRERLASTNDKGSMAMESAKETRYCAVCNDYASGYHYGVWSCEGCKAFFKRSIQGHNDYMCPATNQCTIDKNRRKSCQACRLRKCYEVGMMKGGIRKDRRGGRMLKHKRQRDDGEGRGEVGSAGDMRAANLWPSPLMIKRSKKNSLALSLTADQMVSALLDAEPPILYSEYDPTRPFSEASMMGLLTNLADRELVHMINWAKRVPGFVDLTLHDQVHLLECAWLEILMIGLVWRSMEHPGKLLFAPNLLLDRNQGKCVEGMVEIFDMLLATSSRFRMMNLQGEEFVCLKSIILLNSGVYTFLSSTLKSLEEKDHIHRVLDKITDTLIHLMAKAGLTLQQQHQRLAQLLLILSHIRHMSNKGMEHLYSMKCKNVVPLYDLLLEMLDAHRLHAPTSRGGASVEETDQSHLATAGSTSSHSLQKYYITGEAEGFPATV

[5] = aqueous phosphate buffer, 25 °C, pH 7.4, aqueous buffer, thermodynamic from solid

Which results are given for `C[C@@H]1Cc2c([nH]c3ccccc23)[C@@H](c2c(F)cc(OCCNCCCF)cc2F)N1C[C@H](F)CF` (single isomer, unassigned) [Example 15]?
logD [1]: 3.4; solubility at 24 h [2, 5]: 83 µM (≈ 41.1 µg/mL); Human plasma protein binding (% free) [3]: 1.5 % free

Which logD [1] does the source give for `C[C@@H]1Cc2c([nH]c3ccccc23)[C@@H](c2c(F)cc(OCCNCCCF)cc2F)N1CC(C)(F)CO` (single isomer, unassigned) [Example 17] here?
Its logD is 2.6.

And the solubility at 24 h [2, 5]?
The solubility at 24 h was 629 µM (≈ 319 µg/mL).

And the “Human plasma protein binding (% free)” value [3]?
The value was 3.9 % free.

And the IC50 [4]?
Its IC50 is 0.086 nM.

What about the “% downregulation” value [4] of the same compound?
The value was “(85%)”.

Which logD [1] does the source give for `C[C@@H]1Cc2c([nH]c3ccccc23)[C@@H](c2ccc(OCCNCCCF)cc2)N1CC(F)CF` (single isomer, unassigned) [Example 25] here?
Its logD is 3.

What about the solubility at 24 h ([2]; 25° C.) of the same compound?
The solubility at 24 h was 135 µM (≈ 62 µg/mL).

And the “Human plasma protein binding (% free)” value [3]?
Its value is 1.6 % free.

What about the IC50 [4] of the same compound?
The IC50 was 0.36 nM.

Which logD [1] does the source give for `C[C@@H]1Cc2c([nH]c3ccccc23)[C@@H](c2c(F)cc(OCCNCCCF)cc2F)N1CC(C)(F)F` [Example 12, N-(2-(4-((1R,3R)-2-(2,2-difluoropropyl)-3-methyl-2,3,4,9-tetrahydro-1H-pyrido[3,4-b]indol-1-yl)-3,5-difluorophenoxy)ethyl)-3-fluoropropan-1-amine] here?
The logD was 4.1.

And the solubility at 24 h [2, 5]?
The solubility at 24 h was 12 µM (≈ 5.95 µg/mL).

And the “Human plasma protein binding (% free)” value [3]?
The value was 0.61 % free.

Which results are given for `C[C@@H]1Cc2c([nH]c3ccccc23)[C@@H](c2c(F)cc(OCCNCCCF)cc2F)N1CC(F)F` [Example 13, N-(2-(4-((1R,3R)-2-(2,2-difluoroethyl)-3-methyl-2,3,4,9-tetrahydro-1H-pyrido[3,4-b]indol-1-yl)-3,5-difluorophenoxy)ethyl)-3-fluoropropan-1-amine]?
logD [1]: 3.4; solubility at 24 h [2, 5]: 150 µM (≈ 72.2 µg/mL); Human plasma protein binding (% free) [3]: 1.6 % free

What does the source list for `CC(CNCCCF)Oc1cc(F)c([C@@H]2c3[nH]c4ccccc4c3C[C@@H](C)N2CC(C)(C)F)c(F)c1` (stereo partly drawn) [Example 19, 2-(3,5-difluoro-4-((1R,3R)-2-(2-fluoro-2-methylpropyl)-3-methyl-2,3,4,9-tetrahydro-1H-pyrido[3,4-b]indol-1-yl)phenoxy)-N-(3-fluoropropyl)propan-1-amine]?
logD [1]: > 4.4; solubility at 24 h [2, 5]: 11 µM (≈ 5.56 µg/mL); Human plasma protein binding (% free) [3]: 0.56 % free; IC50 [4]: 0.41 nM; % downregulation [4]: (68%)

Which logD [1] does the source give for `C[C@@H]1Cc2c([nH]c3ccccc23)[C@@H](c2c(F)cc(OCC(CO)NCCCF)cc2F)N1CC(C)(C)F` (stereo partly drawn) [Example 20, 3-(3,5-difluoro-4-((1R,3R)-2-(2-fluoro-2-methylpropyl)-3-methyl-2,3,4,9-tetrahydro-1H-pyrido[3,4-b]indol-1-yl)phenoxy)-2-((3-fluoropropyl)amino)propan-1-ol] here?
The logD was over 3.9.

And the solubility at 24 h [2, 5]?
The solubility at 24 h was 18 µM (≈ 9.39 µg/mL).

What about the “Human plasma protein binding (% free)” value [3] of the same compound?
The value was under 0.30 % free.

And the IC50 [4]?
The IC50 was 0.26 nM.

Which logD [1] does the source give for `C[C@@H]1Cc2c([nH]c3ccccc23)[C@@H](c2ccc(OCCNCCCF)cc2F)N1CC1(F)CC1` [Example 21, 3-fluoro-N-(2-(3-fluoro-4-((1R,3R)-2-((1-fluorocyclopropyl)methyl)-3-methyl-2,3,4,9-tetrahydro-1H-pyrido[3,4-b]indol-1-yl)phenoxy)ethyl)propan-1-amine] here?
The logD was 3.4.

What about the solubility at 24 h [2, 5] of the same compound?
The solubility at 24 h was 149 µM (≈ 70.3 µg/mL).

What about the “Human plasma protein binding (% free)” value [3] of the same compound?
The value was 2.1 % free.

And the IC50 [4]?
Its IC50 is 0.48 nM.

Which logD [1] does the source give for `C[C@@H]1Cc2c([nH]c3ccccc23)[C@@H](c2ccc(OCCNCCCF)cc2F)N1CC1(F)COC1` [Example 22, 3-fluoro-N-(2-(3-fluoro-4-((1R,3R)-2-((3-fluorooxetan-3-yl)methyl)-3-methyl-2,3,4,9-tetrahydro-1H-pyrido[3,4-b]indol-1-yl)phenoxy)ethyl)propan-1-amine] here?
The logD was 3.

What about the solubility at 24 h [2, 5] of the same compound?
Its solubility at 24 h is 197 µM (≈ 96.1 µg/mL).

What about the “Human plasma protein binding (% free)” value [3] of the same compound?
The value was 6.1 % free.

Which logD [1] does the source give for `C[C@@H]1Cc2c([nH]c3ccccc23)[C@@H](c2ccc(OCCNCCCF)cc2)N1CC1(F)CC1` [Example 23, 3-fluoro-N-(2-(4-((1R,3R)-2-((1-fluorocyclopropyl)methyl)-3-methyl-2,3,4,9-tetrahydro-1H-pyrido[3,4-b]indol-1-yl)phenoxy)ethyl)propan-1-amine] here?
The logD was 3.3.

What about the solubility at 24 h [2, 5] of the same compound?
Its solubility at 24 h is 122 µM (≈ 55.3 µg/mL).

And the “Human plasma protein binding (% free)” value [3]?
The value was 1.7 % free.

For `C[C@@H]1Cc2c([nH]c3ccccc23)[C@@H](c2ccc(OCCNCCCF)cc2)N1CC1(F)COC1` [Example 24, 3-fluoro-N-(2-(4-((1R,3R)-2-((3-fluorooxetan-3-yl)methyl)-3-methyl-2,3,4,9-tetrahydro-1H-pyrido[3,4-b]indol-1-yl)phenoxy)ethyl)propan-1-amine], which solubility at 24 h [2, 5] is on record?
Its solubility at 24 h is 370 µM (≈ 174 µg/mL).

Which results are given for `C[C@@H]1Cc2c([nH]c3ccccc23)[C@@H](c2ccc(OC[C@H](C)NCCCF)cc2)N1CC1(F)COC1` [Example 27, 3-fluoro-N-((S)-1-(4-((1R,3R)-2-((3-fluorooxetan-3-yl)methyl)-3-methyl-2,3,4,9-tetrahydro-1H-pyrido[3,4-b]indol-1-yl)phenoxy)propan-2-yl)propan-1-amine]?
logD [1]: 3; solubility at 24 h [2, 5]: 281 µM (≈ 136 µg/mL); Human plasma protein binding (% free) [3]: 5.2 % free; IC50 [4]: 1.5 nM; % downregulation [4]: (79%)

What does the source list for `C[C@@H]1Cc2c([nH]c3ccccc23)[C@@H](c2ccc(OCCNCCCF)cc2C#N)N1CC1(F)CC1` [Example 29, 2-((1R,3R)-2-((1-fluorocyclopropyl)methyl)-3-methyl-2,3,4,9-tetrahydro-1H-pyrido[3,4-b]indol-1-yl)-5-(2-((3-fluoropropyl)amino)ethoxy)benzonitrile]?
IC50 [4]: 19 nM; % downregulation [4]: (57%)

For `COc1cc(OCCNCCCF)ccc1[C@@H]1c2[nH]c3ccccc3c2C[C@@H](C)N1CC(F)F` [Example 43, N-(2-(4-((1R,3R)-2-(2,2-Difluoroethyl)-3-methyl-2,3,4,9-tetrahydro-1H-pyrido[3,4-b]indol-1-yl)-3-methoxyphenoxy)ethyl)-3-fluoropropan-1-amine], which solubility at 24 h [2, 5] is on record?
Its solubility at 24 h is 163 µM (≈ 77.5 µg/mL).

Which results are given for `COCC(C)(F)CN1[C@H](c2c(F)cc(OCCNCCCF)cc2F)c2[nH]c3ccccc3c2C[C@H]1C` (stereo partly drawn) [Example 50, N-(2-(3,5-difluoro-4-((1R,3R)-2-(2-fluoro-3-methoxy-2-methylpropyl)-3-methyl-2,3,4,9-tetrahydro-1H-pyrido[3,4-b]indol-1-yl)phenoxy)ethyl)-3-fluoropropan-1-amine]?
logD [1]: 3.9; solubility at 24 h [2, 5]: 47 µM (≈ 24.5 µg/mL); Human plasma protein binding (% free) [3]: 0.61 % free

With `C[C@@H]1Cc2c([nH]c3ccccc23)[C@@H](c2ccc(OCCNCCCF)cc2F)N1CC(C)(F)F` [Example 55, N-(2-(4-((1R,3R)-2-(2,2-difluoropropyl)-3-methyl-2,3,4,9-tetrahydro-1H-pyrido[3,4-b]indol-1-yl)-3-fluorophenoxy)ethyl)-3-fluoropropan-1-amine] as the compound, how does the logD [1] read?
Its logD is 4.1.

And the solubility at 24 h [2, 5]?
The solubility at 24 h was 32 µM (≈ 15.3 µg/mL).

What about the IC50 [4] of the same compound?
The IC50 was 0.2 nM.

What about the “% downregulation” value [4] of the same compound?
The value was “(89%)”.

For `COc1cc(OCCNCCCF)ccc1[C@@H]1c2[nH]c3ccccc3c2C[C@@H](C)N1CC(F)(F)CO` [Example 58, 2,2-difluoro-3-((1R,3R)-1-(4-(2-((3-fluoropropyl)amino)ethoxy)-2-methoxyphenyl)-3-methyl-1,3,4,9-tetrahydro-2H-pyrido[3,4-b]indol-2-yl)propan-1-ol], which solubility at 24 h [2, 5] is on record?
Its solubility at 24 h is 418 µM (≈ 211 µg/mL).

Which logD [1] does the source give for `COc1cc(NCCNCCCF)ncc1[C@@H]1c2[nH]c3ccccc3c2C[C@@H](C)N1CC(F)(F)CO` [Example 65, 2,2-difluoro-3-((1R,3R)-1-(6-((2-((3-fluoropropyl)amino)ethyl)amino)-4-methoxypyridin-3-yl)-3-methyl-1,3,4,9-tetrahydro-2H-pyrido[3,4-b]indol-2-yl)propan-1-ol] here?
The logD was 2.1.

What about the solubility at 24 h [2, 5] of the same compound?
Its solubility at 24 h is 911 µM (≈ 461 µg/mL).

And the “Human plasma protein binding (% free)” value [3]?
Its value is 14 % free.

With `COc1cc(NCCNCCCF)ncc1[C@@H]1c2[nH]c3ccccc3c2C[C@@H](C)N1CC(F)F` [Example 67, N1-(5-((1R,3R)-2-(2,2-difluoroethyl)-3-methyl-2,3,4,9-tetrahydro-1H-pyrido[3,4-b]indol-1-yl)-4-methoxypyridin-2-yl)-N2-(3-fluoropropyl)ethane-1,2-diamine] as the compound, how does the logD [1] read?
Its logD is 2.5.

What about the solubility at 24 h [2, 5] of the same compound?
Its solubility at 24 h is over 1000 µM.

What about the IC50 [4] of the same compound?
Its IC50 is 0.87 nM.

What does the source list for `COc1cc(NCCNCCCF)ncc1[C@@H]1c2[nH]c3ccccc3c2C[C@@H](C)N1CC(C)(F)F` [Example 68, N1-(5-((1R,3R)-2-(2,2-difluoropropyl)-3-methyl-2,3,4,9-tetrahydro-1H-pyrido[3,4-b]indol-1-yl)-4-methoxypyridin-2-yl)-N2-(3-fluoropropyl)ethane-1,2-diamine]?
logD [1]: 3.1; solubility at 24 h [2, 5]: 438 µM (≈ 214 µg/mL); IC50 [4]: 0.33 nM

Which logD [1] does the source give for `C[C@@H]1Cc2c([nH]c3ccccc23)[C@@H](c2c(F)cc(OCCNCCCF)cc2F)N1CC1(CF)COC1` [Example 72, N-(2-(3,5-difluoro-4-((1R,3R)-2-((3-(fluoromethyl)oxetan-3-yl)methyl)-3-methyl-2,3,4,9-tetrahydro-1H-pyrido[3,4-b]indol-1-yl)phenoxy)ethyl)-3-fluoropropan-1-amine] here?
The logD was 3.4.

And the solubility at 24 h [2, 5]?
Its solubility at 24 h is 96 µM (≈ 49.9 µg/mL).

With `COc1nc(NCCNCCCF)ccc1[C@@H]1c2[nH]c3ccccc3c2C[C@@H](C)N1CC(F)F` [Example 76, N1-(5-((1R,3R)-2-(2,2-difluoroethyl)-3-methyl-2,3,4,9-tetrahydro-1H-pyrido[3,4-b]indol-1-yl)-6-methoxypyridin-2-yl)-N2-(3-fluoropropyl)ethane-1,2-diamine] as the compound, how does the logD [1] read?
The logD was 3.

And the solubility at 24 h [2, 5]?
Its solubility at 24 h is 335 µM (≈ 159 µg/mL).

And the IC50 [4]?
Its IC50 is 0.32 nM.

With `COc1nc(NCCNCCCF)ccc1[C@@H]1c2[nH]c3ccccc3c2C[C@@H](C)N1CC(C)(F)F` [Example 78, N1-(5-((1R,3R)-2-(2,2-difluoropropyl)-3-methyl-2,3,4,9-tetrahydro-1H-pyrido[3,4-b]indol-1-yl)-6-methoxypyridin-2-yl)-N2-(3-fluoropropyl)ethane-1,2-diamine] as the compound, how does the logD [1] read?
The logD was 4.

What about the solubility at 24 h [2, 5] of the same compound?
Its solubility at 24 h is 192 µM (≈ 94 µg/mL).

What about the IC50 [4] of the same compound?
Its IC50 is 0.21 nM.
